The target in one data set is T1, His6-JNK2 (Homo sapiens, UniProt P45984).
T1 construct: His6 (N)
The experiment in a line: JNK assay (c-Jun phosphorylation), JNK2. In kind it is biochemical. Particulars: read-out: IC50 for JNK2 (c-Jun phosphorylation reduced to 50% of control). The procedure: To 10 μL of 5-amino-anthra(9,1-cd)isothiazol-6-one in 20% DMSO/80% dilution buffer containing of 20 mM HEPES (pH 7.6), 0.1 mM EDTA, 2.5 mM magnesium chloride, 0.004% Triton ×100, 2 μg/mL leupeptin, 20 mM β-glycerolphosphate, 0.1 mM sodium vanadate, and 2 mM DTT in water was added 30 μL of 50-200 ng His6-JNK1, JNK2, or JNK3 in the same dilution buffer. The mixture was pre-incubated for 30 minutes at room temperature. Sixty microliter of 10 μg GST-c-Jun(1-79) in assay buffer consisting of 20 mM HEPES (pH 7.6), 50 mM sodium chloride, 0.1 mM EDTA, 24 mM magnesium chloride, 1 mM DTT, 25 mM PNPP, 0.05% Triton ×100, 11 μM ATP, and 0.5 μCi γ-32P ATP in water was added and the reaction was allowed to proceed for 1 hour at room temperature. The c-Jun phosphorylation was terminated by addition of 150 μL of 12.5% trichloroacetic acid. After 30 minutes, the precipitate was harvested onto a filter plate, diluted with 50 μL of the scintillation fluid and quantified by a counter. The IC50 values were calculated as the concentration of 5-amino-anthra(9,1-cd)isothiazol-6-one at which the c-Jun phosphorylation was reduced to 50% of the control value. Compounds that inhibit JNK preferably have an IC50 value ranging 0.01-10 μM in this assay. 5-Amino-anthra(9,1-cd)isothiazol-6-one has an IC50 according to this assay of 1 μM for JNK2 and 400 nM for JNK3.

Data set [1] concerns rat ventral mesencephalan dopaminergic neurons. The experiment in a line: [3H]Dopamine cell culture assay (6-OHDA neurotoxicity). Type of data set: cell-based. As to conditions: 6-OHDA 30 μM, uptake 22 hours after exposure. The procedure: Cultures of dopaminergic neurons were prepared according to a modification of the procedure described by Raymon and Leslie (J. Neurochem. 62:1015-1024, 1994). Time-mated pregnant rats were sacrificed on embyronic day 14-15 (crown rump length 11-12 mm) and the embryos removed by cesarean section. The ventral mesencephalon, containing the dopaminergic neurons, was dissected from each embryo. Tissue pieces from approximately 48 embryos were pooled and dissociated both enzymatically and mechanically. An aliquot from the resulting cell suspension was counted and the cells were plated in high glucose DMEM/F12 culture medium with 10% fetal bovine serum at a density of 1×10^5 cells/well of a Biocoat poly-D-lysine-coated 96-well plate. The day following plating was considered 1 day in vitro (DIV). Cells were maintained in a stable environment at 37° C., 95% humidity, and 5% CO2. A partial medium change was performed at 3 DIV. […]
[^3H]Dopamine uptake is used as a measure of the health and integrity of dopaminergic neurons in culture (Prochiantz et al., PNAS 76: 5387-5391, 1979). […] Briefly, cells treated with 6-OHDA in the presence and absence of 5-amino-anthra(9,1-cd)isothiazol-6-one were assessed in the uptake assay 22 hrs after exposure to 6-OHDA. […] Radioactivity was removed and the cultures were washed 3× with ice cold PBS. […]

Data set [2] in a line: Brain-blood plasma distribution in vivo. The arrangement: species or system Sprague-Dawley rats. Particulars: rat. The procedure: 5-Amino-anthra(9,1-cd)isothiazol-6-one was administered intravenously (10 mg/kg) into the veins of Sprague-Dawley rats. After 2 hr, blood samples were obtained from the animals and their vascular systems were perfused with approximately 100 mL of saline to rid their brains of blood. The brains were removed from the animals, weighed, and homogenized in a 50 mL conical tube containing 10 equivalents (w/v) of methanol/saline (1:1) using a Tissue Tearer (Fischer Scientific). The homogenized material was extracted by adding 600 μL of cold methanol to 250 μL of brain homogenate vortexed for 30 sec and subjected to centrifugation for 5 min. After centrifugation, 600 μL of the resulting supernatant was transferred to a clean tube and evaporated at room temperature under reduced pressure to provide a pellet. The resulting pellet was reconstituted in 250 μL of 30% aqueous methanol to provide a brain homogenate analysis sample. A plasma analysis sample was obtained using the brain homogenate analysis sample procedure described above by substituting plasma for brain homogenate. Standard plasma samples and standard brain homogenate samples containing known amounts of 5-amino-anthra(9,1-cd)isothiazol-6-one were also prepared by adding 5 μL of serial dilutions (50:1) of a solution of 5-amino-anthra(9,1-cd)isothiazol-6-one freshly prepared in cold ethanol to 250 μL of control rat plasma (Bioreclamation of Hicksville, N.Y.) or control brain homogenate. The standard plasma samples and standard brain homogenate samples were then subjected to the same extraction by protein precipitation, centrifugation, evaporation, and reconstitution procedure used for the brain homogenate to provide brain homogenate standard analysis samples and plasma standard analysis samples. The brain homogenate analysis samples, plasma analysis samples, and standard analysis samples were analyzed and compared using HPLC by injecting 100 μL of a sample onto a 5 μm C-18 Luna column (4.6 mm×150 mm, commercially available from Phenomenex of Torrance, Calif.) and eluting at 1 mL/min with a linear gradient of 30% aqueous acetonitrile containing 0.1% trifluoroacetic acid to 90% aqueous acetonitrile containing 0.1% trifluoroacetic acid over 8 minutes and holding at 90% aqueous acetonitrile containing 0.1% trifluoroacetic acid for 3 min. with absorbance detection at 450 nm. […] The concentration of 5-amino-anthra(9,1-cd) isothiazol-6-one in the brain and plasma was determined by comparing HPLC chromatograms obtained from the brain homogenate analysis samples and plasma analysis samples to standard curves constructed from analysis of the brain homogenate standard analysis samples and the plasma standard analysis samples, respectively. […]

T1 sequence (P45984 whole entry): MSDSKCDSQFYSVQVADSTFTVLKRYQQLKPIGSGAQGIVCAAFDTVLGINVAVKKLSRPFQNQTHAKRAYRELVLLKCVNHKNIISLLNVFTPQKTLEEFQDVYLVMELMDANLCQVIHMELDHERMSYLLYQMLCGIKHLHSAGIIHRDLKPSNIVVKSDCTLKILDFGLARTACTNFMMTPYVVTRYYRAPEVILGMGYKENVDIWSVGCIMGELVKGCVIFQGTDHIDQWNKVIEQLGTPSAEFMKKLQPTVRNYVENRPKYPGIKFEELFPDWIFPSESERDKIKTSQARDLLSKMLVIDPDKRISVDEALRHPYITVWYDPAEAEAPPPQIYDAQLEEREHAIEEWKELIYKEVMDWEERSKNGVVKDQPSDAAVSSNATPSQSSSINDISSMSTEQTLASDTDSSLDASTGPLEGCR

In the case of `Nc1ccc2snc3c2c1C(=O)c1ccccc1-3` [5-amino-anthra(9,1-cd)isothiazol-6-one], on His6-JNK2, the IC50 worked out at 1000 nM. For the same compound, the “Protection of dopaminergic neurons from 6-OHDA ([3H]dopamine uptake)” value in data set [1] was “protects rat ventral mesencephalan neurons from the toxic effects of 6-OHDA”. Moreover, in data set [2] (Sprague-Dawley, iv, 10 mg/kg intravenously, 2 hr post-dose, assuming 1 g brain tissue equivalent to 1 mL plasma, read-out: Brain-plasma concentration ratio), the Kp at 2 h was approximately 9. Also, the concentration at 2 h in data set [2] (Sprague-Dawley, plasma, iv, 10 mg/kg intravenously, 2 hr post-dose) is approximately 7 µM. In addition, the Brain-drug concentration entry in data set [2] (10 mg/kg intravenously, 2 hr post-dose) is on record as “approximately 65 nmole/g”. In addition, the Blood-brain barrier crossing entry in data set [2] (following intravenous administration) is “crosses the blood-brain barrier to a significant extent”.

The values above are taken from US20040034084A1, “Methods for using JNK inhibitors for treating or preventing disease-related wasting” (Celgene Corporation, priority 2002, published 2004).
